Measured values: patent US12110293B2, “Substituted triazolo quinoxaline derivatives” (GRÜNENTHAL GMBH, priority 2018, dated 2024)

Target: T1, glucocorticoid receptor (Homo sapiens, UniProt P04150)
T1 construct: expressed in transfected cells
T1 sequence (P04150 524-758 limits assumed): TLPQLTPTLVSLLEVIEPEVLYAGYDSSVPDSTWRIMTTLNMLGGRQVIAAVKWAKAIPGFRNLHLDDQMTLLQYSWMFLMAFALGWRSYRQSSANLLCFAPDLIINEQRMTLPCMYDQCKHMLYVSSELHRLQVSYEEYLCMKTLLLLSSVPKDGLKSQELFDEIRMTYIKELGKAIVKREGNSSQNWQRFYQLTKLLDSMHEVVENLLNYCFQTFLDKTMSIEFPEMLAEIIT
Experiment: Agonistic mode of action on the glucocorticoid receptor (CHO-Gal4/GR luciferase reporter cell line)
Format: cell-based
Details: range class observed in the agonistic assay or the antagonistic assay (CHO-Gal4/GR reporter cells); table does not say which mode applies per example
Summary of the method: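 CHO cells stably carrying GAL4 DBD–GR ligand-binding-domain fusion and GAL4-UAS firefly luciferase reporter, 5000 cells/well grown 24 h, then compounds added in Opti-MEM at 8 half-log concentrations from 10 μM to 0.003 μM (0.5% DMSO), quadruplicates. Agonist-induced luminescence read on FLIPR Tetra; EC50 calculated.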

| IC50 or EC50 (agonist or antagonist mode not specified) [nM] | SMILES |
| --- | --- |
| < 100 | Cc1cc(-c2c(F)cc3c(c2F)-n2c(C)nnc2C(C)(C)N3)c2ccn(S(C)(=O)=O)c2c1 [Example 492, 7,9-Difluoro-1,4,4-trimethyl-8-(6-methyl-1-methylsulfonyl-1H-indol-4-yl)-5H-[1,2,4]triazolo [4,3-a]quinoxaline] |
| 1000 to 15000 | CCc1nnc2n1-c1c(cc(F)c(-c3cccc4c3cnn4C)c1C)NC2(C)C [Example 240, 1-Ethyl-7-fluoro-4,4,9-trimethyl-8-(1-methyl-1H-indazol-4-yl)-5H-[1,2,4]triazolo[4,3-a]quinoxaline] |
| 100 to 1000 | Cc1c(-c2cccc3c2ccn3CC(F)F)c(Cl)cc2c1-n1c(C)nnc1C(C)(C)N2 [Example 327, 7-Chloro-8-[1-(2,2-difluoro-ethyl)-1H-indol-4-yl]-1,4,4,9-tetramethyl-5H-[1,2,4]triazolo[4,3-a]quinoxaline] |
| 100 to 1000 | COCCn1ccc2c(-c3c(F)cc4c(c3OC)-n3c(C)nnc3C(C)(C)N4)cccc21 [Example 281, 7-Fluoro-9-methoxy-8-[1-(2-methoxy-ethyl)-1H-indol-4-yl]-1,4,4-trimethyl-5H-[1,2,4]triazolo[4,3-a]quinoxaline] |
| < 100 | Cc1c[nH]c2c(-c3c(F)cc4c(c3Cl)-n3c(C)nnc3C(C)(C)N4)cc(F)cc12 [Example 30] |
| 100 to 1000 | CCS(=O)(=O)n1ccc2c(-c3c(OC)cc4c(c3C(F)(F)F)-n3c(C)nnc3C(C)(C)N4)cccc21 [Example 371, 8-[1-(Ethylsulfonyl)-1H-indol-4-yl]-7-methoxy-1,4,4-trimethyl-9-(trifluoromethyl)-5H-[1,2,4]triazolo[4,3-a]quinoxaline] |
| 100 to 1000 | Cc1nnc2n1-c1c(cc(F)c(-c3cc(F)cc4c3ccn4CCO)c1C(F)(F)F)NC2(C)C [Example 447, 2-[6-Fluoro-4-[7-fluoro-1,4,4-trimethyl-9-(trifluoromethyl)-5H-[1,2,4]triazolo[4,3-a]quinoxalin-8-yl]-1H-indol-1-yl]-ethanol] |
| 1000 to 15000 | Cc1c(-c2cccc3c2cnn3S(C)(=O)=O)c(Cl)cc2c1-n1c(C)nnc1C(C)(C)N2 [Example 386, 7-Chloro-1,4,4,9-tetramethyl-8-(1-methylsulfonyl-1H-indazol-4-yl)-5H-[1,2,4]triazolo[4,3-a] quinoxaline] |
| 100 to 1000 | Cc1c(-c2ccc(Cl)c3c2ccn3S(C)(=O)=O)c(F)cc2c1-n1c(C)nnc1C(C)(C)N2 [Example 525, 8-(7-Chloro-1-methylsulfonyl-1H-indol-4-yl)-7-fluoro-1,4,4,9-tetramethyl-5H-[1,2,4]triazolo [4,3-a]quinoxaline] |
| 100 to 1000 | Cc1nnc2n1-c1c(cc(F)c(-c3ccc(C#N)c4[nH]ccc34)c1C(F)(F)F)NC2(C)C [Example 531, 4-[7-Fluoro-1,4,4-trimethyl-9-(trifluoromethyl)-5H-[1,2,4]triazolo[4,3-a]quinoxalin-8-yl]-1H-indole-7-carbonitrile] |
| < 100 | Cc1c(-c2cccc3c2ccn3S(C)(=O)=O)c(OC(F)(F)F)cc2c1-n1c(C)nnc1C(C)(C)N2 [Example 465, 1,4,4,9-Tetramethyl-8-(1-methylsulfonyl-1H-indol-4-yl)-7-(trifluoromethyloxy)-5H-[1,2,4]triazolo[4,3-a]quinoxaline] |
| 1000 to 15000 | CCc1nnc2n1-c1c(cc(F)c(-c3cccc4c3ccn4S(C)(=O)=O)c1C)NC2(C)C [Example 247, 1-Ethyl-7-fluoro-4,4,9-trimethyl-8-(1-methylsulfonyl-1H-indol-4-yl)-5H-[1,2,4]triazolo[4,3-a]quinoxaline] |
| < 100 | Cc1c(-c2cc(F)cc3c(CC(F)(F)F)c[nH]c23)c(F)cc2c1-n1c(C)nnc1C(C)(C)N2 [Example 23, 7-fluoro-8-(5-fluoro-3-(2,2,2-trifluoroethyl)-1H-indol-7-yl)-1,4,4,9-tetramethyl-4,5-dihydro-[1,2,4]triazolo[4,3-a]quinoxaline] |
| 1000 to 15000 | Cc1nnc2n1-c1c(cc(F)c(-c3cccc4c3ccn4CCN(C)C)c1F)NC2(C)C [Example 383, [2-[4-(7,9-Difluoro-1,4,4-trimethyl-5H-[1,2,4]triazolo[4,3-a]quinoxalin-8-yl)-1H-indol-1-yl]-ethyl]-dimethyl-amine] |
| 1000 to 15000 | Cc1nnc2n1-c1c(cc(F)c(-c3cccc4c3cnn4S(C)(=O)=O)c1C(F)F)NC2(C)C [Example 382, 9-(Difluoro-methyl)-7-fluoro-1,4,4-trimethyl-8-(1-methylsulfonyl-1H-indazol-4-yl)-5H-[1,2,4]triazolo[4,3-a]quinoxaline] |
| < 100 | Cc1nnc2n1-c1c(cc(F)c(-c3cc(F)cc4c3ccn4S(C)(=O)=O)c1C(F)(F)F)NC2(C)C [Example 37, 7-fluoro-8-(6-fluoro-1-(methylsulfonyl)-1H-indol-4-yl)-1,4,4-trimethyl-9-(trifluoromethyl)-4,5-dihydro-[1,2,4]triazolo[4,3-a]quinoxaline] |
| < 100 | Cc1nnc2n1-c1c(cc(F)c(-c3cccc4c3cnn4C)c1C(F)F)NC2(C)C [Example 294, 9-(Difluoro-methyl)-7-fluoro-1,4,4-trimethyl-8-(1-methyl-1H-indazol-4-yl)-5H-[1,2,4]triazolo[4,3-a]quinoxaline] |
| 100 to 1000 | Cc1nnc2n1-c1c(cc(F)c(-c3cccc4c3ccn4CCO)c1C(F)(F)F)NC2(C)C [Example 456, 2-[4-[7-Fluoro-1,4,4-trimethyl-9-(trifluoromethyl)-5H-[1,2,4]triazolo[4,3-a]quinoxalin-8-yl]-1H-indol-1-yl]-ethanol] |
| 100 to 1000 | Cc1c(-c2ccc(F)c3[nH]ccc23)c(Cl)cc2c1-n1c(C)nnc1C(C)(C)N2 [Example 506, 7-Chloro-8-(7-fluoro-1H-indol-4-yl)-1,4,4,9-tetramethyl-5H-[1,2,4]triazolo[4,3-a]quinoxaline] |
| 100 to 1000 | Cc1c[nH]c2c(-c3c(OC(F)F)cc4c(c3F)-n3c(C)nnc3C(C)(C)N4)cccc12 [Example 282, 7-(Difluoro-methoxy)-9-fluoro-1,4,4-trimethyl-8-(3-methyl-1H-indol-7-yl)-5H-[1,2,4]triazolo[4,3-a]quinoxaline] |
| 100 to 1000 | Cc1cc2c(c(C)c1-c1cc(F)cc3c1cnn3S(C)(=O)=O)-n1c(C)nnc1C(C)(C)N2 [Example 373, 8-(6-Fluoro-1-methylsulfonyl-1H-indazol-4-yl)-1,4,4,7,9-pentamethyl-5H-[1,2,4]triazolo[4,3-a]quinoxaline] |
| 100 to 1000 | CC#Cc1c[nH]c2c(-c3c(F)cc4c(c3C)-n3c(CO)nnc3C(C)(C)N4)cc(F)cc12 [Example 77, (7-fluoro-8-(5-fluoro-3-(prop-1-yn-1-yl)-1H-indol-7-yl)-4,4,9-trimethyl-4,5-dihydro-[1,2,4]triazolo[4,3-a]quinoxalin-1-yl)methanol] |
| 100 to 1000 | Cc1c(-c2cc(C(F)(F)F)cc3[nH]ccc23)c(Cl)cc2c1-n1c(C)nnc1C(C)(C)N2 [Example 475, 7-Chloro-1,4,4,9-tetramethyl-8-[6-(trifluoromethyl)-1H-indol-4-yl]-5H-[1,2,4]triazolo[4,3-a]quinoxaline] |
| < 100 | COc1c(-c2cc(F)cc3c(C)c[nH]c23)c(F)cc2c1-n1c(C)nnc1C(C)(C)N2 [Example 249, 7-Fluoro-8-(5-fluoro-3-methyl-1H-indol-7-yl)-9-methoxy-1,4,4-trimethyl-5H-[1,2,4]triazolo[4,3-a]quinoxaline] |
| 1000 to 15000 | Cc1nnc2n1-c1c(cc(OC(F)F)c(-c3cccc4c3ccn4S(C)(=O)=O)c1F)NC2(C)C [Example 275, 7-(Difluoro-methoxy)-9-fluoro-1,4,4-trimethyl-8-(1-methylsulfonyl-1H-indol-4-yl)-5H-[1,2,4]triazolo[4,3-a]quinoxaline] |
| 100 to 1000 | Cc1nnc2n1-c1c(cc(F)c(-c3cccc4c3ccn4S(=O)(=O)CC3CC3)c1C(F)F)NC2(C)C [Example 502, 8-[1-(Cyclopropyl-methylsulfonyl)-1H-indol-4-yl]-9-(difluoro-methyl)-7-fluoro-1,4,4-trimethyl-5H-[1,2,4]triazolo[4,3-a]quinoxaline] |
| 100 to 1000 | Cc1nnc2n1-c1c(cc(F)c(-c3cc(F)cc4c3ccn4S(=O)(=O)C3CC3)c1F)NC2(C)C [Example 19, 8-(1-(cyclopropylsulfonyl)-6-fluoro-1H-indol-4-yl)-7,9-difluoro-1,4,4-trimethyl-4,5-dihydro-[1,2,4]triazolo[4,3-a]quinoxaline] |
| 100 to 1000 | COc1c(-c2cccc3c2ccn3C(=O)OC(C)(C)C)c(F)cc2c1-n1c(C)nnc1C(C)(C)N2 [Example 260, 4-(7-Fluoro-9-methoxy-1,4,4-trimethyl-5H-[1,2,4]triazolo[4,3-a]quinoxalin-8-yl)-1H-indole-1-carboxylic acid tert-butyl ester] |
| < 100 | Cc1c[nH]c2c(-c3c(F)cc4c(c3F)-n3c(Cc5ccccn5)nnc3C(C)(C)N4)cccc12 [Example 75, 7,9-Difluoro-4,4-dimethyl-8-(3-methyl-1H-indol-7-yl)-1-(pyridin-2-yl-methyl)-5H-[1,2,4]triazolo[4,3-a]quinoxaline] |
